Data taken from patent US8859615B2, “Compounds, compositions and methods for reducing toxicity and treating or preventing diseases” (priority 2008, dated 2014).
Values joined by “and” are separate entries in the source; they are usually repeats but may differ in a detail not shown here. Equal values may be shown once. Read-outs that look alike come from different tables or passages of the source.

Legend:
[1] = test system: quinone reductase (NQO1) in Hepa 1c1c7 murine hepatoma cells; experiment: Phase 2 enzyme inducer activity (Prochaska microtiter plate bioassay); settings: Hepa 1c1c7 cells
Protocol: Pure panaxytriol was dissolved in dimethyl sulfoxide. Phase 2 enzyme inducer activity was measured using a rapid assay of activity of representative phase 2 enzyme in a cell line. This assay was originally developed by Prochaska and colleagues as in Prochaska H J, Santamaria A B, Talalay P. “Rapid detection of inducers of enzymes that protect against carcinogens.” Proc Natl Acad Sci US A 1992; 89:2394-2398, and has been further refined as in Fahey J W, Dinkova-Kostova A T, Stephenson K K, Talalay P. “The “Prochaska” microtiter plate bioassay for inducers of NQO1.” Methods Enzymol. 2004; 382:243-258, each of which are incorporated by reference in its entirety. Briefly, Hepa 1c1c7 murine hepatoma cells were grown in 96-well microtiter plates. Serial dilutions of the extracts or compounds which were assayed were added into the wells. After 48 hours, the cells were lysed and the activity of quinone reductase (NQO1) was assayed by the addition of a reaction mixture containing an NADPH-generating system, menadione and MTT. NQO1 catalyzes the reduction of menadione to menadiol by NADPH, and MTT is reduced nonenzymatically by menadiol, resulting in the formation of a blue color that can then be quantitated as in Prochaska H J, Santamaria A B. “Direct measurement of NAD(P)H:quinone reductase from cells cultured in microtiter wells: a screening assay for anticarcinogenic enzyme inducers.” Anal. Biochem. 1988; 169:328-336, which is incorporated by reference in its entirety. […] NQO1 activity and protein content of the lysate were measured in duplicate plates with an optical microtiter plate absorbance reader. […] One unit of inducer activity is defined as the amount that, when added to a single microtiter well, doubles the NQO1 specific activity. Sulforaphane and β-naphthoflavone were used as positive controls in each bioassay. […] NQO1 inducer activity was assayed as described herein, and is reported here as treated/control at different concentrations of ginseng extract or component per well. […] (+) Panaxytriol (molecular weight […]), (Δ) Protopanaxatriol (molecular weight 461), (◯) Korean red SUN GINSENG® extract. The reductase assay can also be performed as disclosed in PCT Publication No. WO 06/023821, the entire contents of which are hereby incorporated in the instant application.

[2] = test system: CCRF-CEM human T-cell acute lymphoblastic leukemia cells; experiment: In vitro cytotoxicity against CCRF-CEM (XTT / CCK-8 tetrazolium assay, 72 hr); settings: Homo sapiens, CCRF-CEM
Protocol: (§1) The cytotoxicity IC50 of each compound was measured with the XTT assay using the 2,3-bis(2-methoxy-4-nitro-5-sulfophenyl)-5-[(phenylamino)carbonyl]-2H-tetrazolium hydroxide (XTT) microculture method as described in Scudiero et al., Cancer Res., 48:4827 (1988), the contents of which are hereby incorporated by reference in their entirety. The CCK-8 assay is a cell counting kit-8 (CCK-8) tetrazolium assay using a 96-well microplate (Dojindo Molecular Technologies, Inc., Rockville, Md.) (M. Ishiyama et al., Biol. Pharm. Bull. 19: 1518, 1996). Absorbance was measured by Powerwave a XS microplate spectrophotometer. This method described is considered a general method in vitro cytotoxicity studies.
(§2) The data in Tables 2X, 3A-E, 4, 5, and 6 were obtained using the cell counting kit-8 (CCK-8) tetrazolium assay in a 96-well microplate. Five to seven concentrations of each compound in triplicate were used, and the IC50 values were determined by CompuSyn software automation (Chou T C. and Martin N. ComboSyn, Inc., 2006) based on the median-effect equation and plot (Chou T C. J. Theor. Biol. 59:235-276, 1976; Chou T C. Pharmacol. Rev. 58: 621-681, 2006). […] The r value defines the correlation coefficient of the median-effect plot which signifies the conformity to the mass-action law principle (Chou T C. J. Theor. Biol. 59:235-276, 1976; Chou T C. Pharmacol. Rev. 58:621-681, 2006). These parameters were determined by CompuSyn simulation (available at http://www.combosyn.com).
(§3) CCRF-CEM human T-cell acute lymphoblastic leukemia cells and the corresponding vinblastine-resistant cells (CCRF-CEM/VBL100) were cultured at an initial density of 5×10^4 cells per milliliter. The cultured cells were maintained in a 5% CO2-humidified atmosphere at 37° C. in RPMI medium 1640 (GIBCO/BRL) containing penicillin (100 units/mL), streptomycin (100 μg/mL, GIBCO/BRL), and 10% heat-inactivated fetal bovine serum. The cytotoxicity of each Compound of the invention was measured using the 2,3-bis(2-methoxy-4-nitro-5-sulfophenyl)-5-[(phenylamino)carbonyl]-2H-tetrazolium hydroxide (XTT) microculture method as described in Scudiero et al., Cancer Res., 48:4827 (1988), the contents of which are hereby incorporated by reference in their entirety.
(§4) Absorbance was measured by Powerwave XS microplate spectrophotometer.

[3] = test system: CCRF-CEM/VBL100 vinblastine-resistant cells; experiment: In vitro cytotoxicity against vinblastine-resistant CCRF-CEM subline; assay type: cell-based, human; settings: for IC50: Homo sapiens, CCRF-CEM, 72 h
Protocol: as §1, §2, §3, §4

[4] = test system: CCRF-CEM subline resistant to TAXOL; experiment: In vitro cytotoxicity against TAXOL-resistant CCRF-CEM subline; assay type: cell-based, human; settings: for IC50: Homo sapiens, CCRF-CEM
Protocol: as §2, §4

HCT-116 colon carcinoma = experiment: Cytotoxicity against solid tumor cells, CCK-8, 72 hrs (Table 4); assay type: cell-based; settings: Homo sapiens
Protocol: (§5) Compounds are also evaluated against A-549 lung carcinoma and SK-OV-3 ovarian adenocarcinoma cell lines using the methodology as for Table 3. The potency order for the compounds may vary in different tumor cell lines. […] Absorbance was measured using a Powerwave XS microplate spectrophotometer.

MX-1 mammary carcinoma = experiment: as above; assay type: cell-based; settings: Homo sapiens
Protocol: as §5

A-549 lung carcinoma = experiment: Cytotoxicity against solid tumor cells (Table 4); assay type: cell-based; settings: Homo sapiens, A549, CCK-8, 72 hrs
Protocol: as §5

[5] = test system: SK-OV-3 ovarian adenocarcinoma; experiment: Cytotoxicity against solid tumor cells (Table 4); assay type: cell-based; settings: Homo sapiens, CCK-8, 72 hrs
Protocol: as §5

[6] = test system: human lymphoblastic leukemic T-cell growth; experiment: Cytotoxic activity relative to stability during storage at −20° C. in DMSO (Table 10); assay type: cell-based; settings: compared with Compound D
Source text: Without wishing to be bound by theory, the oxidized versions may be active metabolites. This theory provides an explanation of the delayed onset of therapeutic effects seen in the figures herein. The oxidized compounds may be active agents that are formed slowly upon metabolic oxidation. […] The active metabolites may explain the biphasic pharmacological properties of panaxytriol or Compound D that have been observed (FIGS. 9B, C, D; FIGS. 11D, E, F, and FIGS. 12D, E). […] Induction of the phase 2 enzymes may slow oxidation of the compounds (Ng et al., Tetrahedron Letters. 49: 7178-7179 (2008)).

[7] = Protocol: The experimental procedure for FIG. 14 was carried out similarly to that in FIG. 1. * means P<0.1 and ** means P<0.05. Body weight was calculated as described for FIGS. 1 and 4-7.
The experiments were performed as indicated for FIG. 14, with Compound (K) being administered orally. Compound K was administered on the days indicated by the arrows at the top of the graph, and paclitaxel was administered on the days indicated by the arrows on the bottom of the graph. Body weight was calculated as described for FIGS. 1, 4-7, 14 and 15. * means P<0.1 and ** means P<0.05.

[8] = test system: quinone reductase (NQO1) in Hepa 1c1c7 murine hepatoma cells; settings: for comparison; cited from earlier work
[9] = for Total score: Table 11A, First Round, days 09-27; for 1st & 2nd Cycle Total Score / 2nd Cycle Total Score: Table 11C; for toxicity score (neurotoxicity): nude, mouse, in vivo
Protocol: The “toxicity score” (or “Total Score” in Tables 11A-C) is determined by adding the neurotoxicity ratings. The ratings used are: Normal (−, a toxicity score of 0); slightly unable to balance (+, a toxicity score of 1); hind-leg paralysis (++, a toxicity score of 2); and 4-leg paralysis and death (+++, none observed).

[10] = test system: human colon carcinoma HCT-116 xenografts; experiment: Compound D with Iso-Oxazole-Fludelone or Isodehydelone in nude mice bearing HCT-116 xenografts; settings: FIG. 15; Isodehydelone 6 hr-iv infusion, with or without oral Compound (D); n=7
[11] = 72 h, read-out: IC50 CCRF-CEM, Table 3D, CCK-8, 72-hr incubation
[12] = read-out: IC50 (in μM), cytotoxic potency against cancer cell line growth in vitro, Table 3C, cell line not given
[13] = Table 3D, CCK-8, 72-hr incubation, read-out: IC50 CCRF-CEM/Vinblastine
[14] = Table 3D, CCK-8, 72-hr incubation, read-out: IC50 CCRF-CEM/TAXOL

## CC(C)=CCCC(C)(O)[C@H]1CC[C@]2(C)[C@@H]1[C@H](O)C[C@@H]1[C@@]3(C)CC[C@H](O)C(C)(C)[C@@H]3CC[C@]12C (stereo in doubt) [protopanaxadiol]
[1]
  significant cytotoxicity observed above: above 5 μg/well

## CCCCCCC[C@H]1OC(C)(C)O[C@@H]1CC#CC#CC(=O)CC [Compound (J)]
[2]; [11]
  IC50: 0.83 ± 0.26 µM
[2]; [12]
  IC50: 0.83 µM
[3]; [13]
  IC50: 1.19 µM
[4]; [14]
  IC50: 1.72 µM
HCT-116 colon carcinoma
  IC50: 1090 nM
MX-1 mammary carcinoma
  IC50: 1470 nM
A-549 lung carcinoma
  IC50: 12600 nM
[5]
  IC50: 13000 nM

## CCCCCCC[C@H]1OC(C)(C)O[C@@H]1CC#CC#C[C@@H](O)CC [Compound (K)]
[2]; [11]
  IC50: 2.03 ± 0.13 µM
[2]; [12]
  IC50: 2.03 µM
[3]; [13]
  IC50: 3.3 µM
[4]; [14]
  IC50: 3.57 µM
HCT-116 colon carcinoma
  IC50: 3170 nM
MX-1 mammary carcinoma
  IC50: 3440 nM
A-549 lung carcinoma
  IC50: 1020 nM
[5]
  IC50: 4030 nM
[6]
  stability (shelf life): more stable than Compound D
[7]; mouse, in vivo
  reduction of paclitaxel-induced general toxicity and neurotoxicity compared with Compound D: superior to Compound D
[7]; mouse, in vivo, po
  effect of oral administration on paclitaxel toxicity: orally effective in Reducing the Toxicity of paclitaxel and improving recovery after treatment

## C=Cc1c(C)c2cc3nc(c4c5[n-]c(cc6nc(cc1[n-]2)C(C)=C6CC)c(C)c5C(=O)[C@@H]4C(=O)OC)[C@@H](CCC(=O)OC/C=C(\C)CCC[C@H](C)CCC[C@H](C)CCCC(C)C)[C@@H]3C.[Mg+2] [chlorophyll a]
[8]
  reported CD value: 250 µM
  reported inducer potency: 24,600 U/g

## CC(=O)O[C@H]1C(=O)[C@@]2(C)[C@H]([C@H](OC(=O)c3ccccc3)[C@]3(O)C[C@H](OC(=O)[C@H](O)[C@@H](NC(=O)c4ccccc4)c4ccccc4)C(C)=C1C3(C)C)[C@]1(OC(C)=O)CO[C@@H]1C[C@@H]2O [paclitaxel]
[2]; 72 h, read-out: CCRF-CEM (IC50 in μM), Table 3A-2, CCK-8, 72-hr exposure
  IC50: 0.0013 µM
[3]; Table 3A-2, CCK-8, 72-hr exposure, read-out: CCRF-CEM/VBL (IC50 in μM)
  IC50: 2.26 µM
[3]; Table 3A-2
  Fold of resistance (IC50 ratio CCRF-CEM/VBL vs CCRF-CEM): 1741 fold
[4]; Table 3A-2, CCK-8, 72-hr exposure, read-out: CCRF-CEM/TAXOL (IC50 in μM)
  IC50: 1.12 µM
[4]; Table 3A-2
  Fold of resistance (IC50 ratio CCRF-CEM/TAXOL vs CCRF-CEM): 860 fold
[7]; FIG. 14, paclitaxel 25 mg/kg iv Q2D×8, with or without Compound K 30 mg/kg iv Q4D×14
  complete remission (CR): 10/10
[7]; mouse, in vivo
  BW loss: approximately 25%
  decrease in BW: 13.2%
[9]; per mouse
  Total score: 8 (3×) and 2 (2×) and 0 and 5 and 3 and 10 and 7
[9]; whole group of 10 mice
  Total score: 53
  1st & 2nd Cycle Total Score: 234
  2nd Cycle Total Score: 181
[9]; per mouse, listed as Taxol
  1st & 2nd Cycle Total Score: 33 (2×) and 4 (2×) and 15 and 35 and 18 and 34 and 27 and 31
  2nd Cycle Total Score: 25 (2×) and 2 (2×) and 15 (2×) and 30 and 24 and 20 and 23
[9]; days 12-26, sum over 11 mice of the group, first round of paclitaxel
  1st Total score (group): 13
[9]; days 12-26, sum per individual mouse, first round of paclitaxel
  1st Total score (per mouse): 3 and 2 (3×) and 4
[9]; days 28-42, sum over 11 mice of the group, second round of paclitaxel
  2nd Total Score up to day 42 (group): 79
[9]; days 28-42, sum per individual mouse, second round of paclitaxel
  2nd Total Score up to day 42 (per mouse): 8 and 6 (3×) and 9 (3×) and 7 and 5 and 4 and 10
[9]; 27 day
  toxicity score (neurotoxicity): 2
[9]; 59 day
  toxicity score (neurotoxicity): 6

## C[S+]([O-])CCCCN=C=S (stereo not drawn) [sulforaphane]
[8]
  reported CD value: 0.2 µM
  reported inducer potency: 188,000,000 U/g

## iso-oxazole-dehydelone (17-isooxazole-dehydelone) [isodehydelone]
[10]
  mice died: Two
